system: IL-2 production; experiment: Inhibition of IL-2 production in PHA-activated Jurkat cells (ELISA); format: cell-based; details: Homo sapiens, PHA 2.5 μg/mL, 20 hours, IL-2 ELISA
Description: Jurkat cells were placed in a 96 well plate (0.5 million cells per well in 1% FBS medium) then a test compound of this invention was added at different concentrations. After 10 minutes, the cells were activated with PHA (final concentration 2.5 μg/mL) and incubated for 20 hours at 37° C. under CO2. The final volume was 200 μL. Following incubation, the cells were centrifuged and the supernatants were collected and stored at −70° C. prior to assaying for IL-2 production. A commercial ELISA kit (IL-2 Eli-pair, Diaclone Research, Besancon, France) was used to detect production of IL-2, from which dose response curves were obtained. The IC50 value was calculated as the concentration at which 50% of maximum IL-2 production after stimulation was inhibited versus a non-stimulation control.

IC50 | SMILES
> 1 µM | COc1ccc(CNc2cnc(-n3c(C(F)(F)F)nc4cc(OC)ccc43)cn2)cc1 [Compound 90, (4-Methoxy-benzyl)-[5-(5-methoxy-2-trifluoromethyl-benzoimidazol-1-yl)-pyrazin-2-yl]-amine]
0.384 µM | COc1ccc2c(c1)nc(C(F)(F)F)n2-c1cnc(NC(=O)c2ccc(Cl)cc2)cn1 [Compound 91, 4-Chloro-N-[5-(5-methoxy-2-trifluoromethyl-benzoimidazol-1-yl)-pyrazin-2-yl]-benzamide]
0.017 µM | COc1ccc2c(c1)nc(C(F)(F)F)n2-c1cnc(NC(=O)c2cccc(C)c2C)cn1 [Compound 92, N-[5-(5-Methoxy-2-trifluoromethyl-benzoimidazol-1-yl)-pyrazin-2-yl]-2,3-dimethyl-benzamide]
0.181 µM | COc1ccc2c(c1)nc(C(F)(F)F)n2-c1cnc(NC(=O)c2ccc(C#N)cc2)cn1 [Compound 93, 4-Cyano-N-[5-(5-methoxy-2-trifluoromethyl-benzoimidazol-1-yl)-pyrazin-2-yl]-benzamide]
0.078 µM | COc1ccc2c(c1)nc(C(F)(F)F)n2-c1cnc(NC(=O)c2ccc(C)cc2C)cn1 [Compound 94, N-[5-(5-Methoxy-2-trifluoromethyl-benzoimidazol-1-yl)-pyrazin-2-yl]-2,4-dimethyl-benzamide]
0.489 µM | COc1ccc2c(c1)nc(C(F)(F)F)n2-c1cnc(NC(=O)c2cccc(SC)c2)cn1 [Compound 95, N-[5-(5-Methoxy-2-trifluoromethyl-benzoimidazol-1-yl)-pyrazin-2-yl]-3-methylsulfanyl-benzamide]
0.091 µM | COc1ccc2c(c1)nc(C(F)(F)F)n2-c1cnc(NC(=O)c2cccc(Cl)c2)cn1 [Compound 96, 3-Chloro-N-[5-(5-methoxy-2-trifluoromethyl-benzoimidazol-1-yl)-pyrazin-2-yl]-benzamide]
0.307 µM | COc1ccc2c(c1)nc(C(F)(F)F)n2-c1cnc(NC(=O)c2ccc([N+](=O)[O-])cc2)cn1 [Compound 97, N-[5-(5-Methoxy-2-trifluoromethyl-benzoimidazol-1-yl)-pyrazin-2-yl]-4-nitro-benzamide]
0.104 µM | COc1ccc2c(c1)nc(C(F)(F)F)n2-c1cnc(NC(=O)c2cccc([N+](=O)[O-])c2)cn1 [Compound 98, N-[5-(5-Methoxy-2-trifluoromethyl-benzoimidazol-1-yl)-pyrazin-2-yl]-3-nitro-benzamide]
0.052 µM | COc1ccc2c(c1)nc(C(F)(F)F)n2-c1cnc(NC(=O)c2ccccc2Cl)cn1 [Compound 99, 2-Chloro-N-[5-(5-methoxy-2-trifluoromethyl-benzoimidazol-1-yl)-pyrazin-2-yl]-benzamide]
0.132 µM | COc1ccc2c(c1)nc(C(F)(F)F)n2-c1cnc(NCc2c(F)cccc2Cl)cn1 [Compound 100, (2-Chloro-6-fluoro-benzyl)-[5-(5-methoxy-2-trifluoromethyl-benzoimidazol-1-yl)-pyrazin-2-yl]-amine]
0.096 µM | COc1ccc2c(c1)nc(C(F)(F)F)n2-c1cnc(NC(=O)c2cccc(C#N)c2)cn1 [Compound 101, 3-Cyano-N-[5-(5-methoxy-2-trifluoromethyl-benzoimidazol-1-yl)-pyrazin-2-yl]-benzamide]
> 1 µM | COc1ccc2c(c1)nc(C(F)(F)F)n2-c1cnc(NCc2ccccc2OC)cn1 [Compound 102, (2-Methoxy-benzyl)-[5-(5-methoxy-2-trifluoromethyl-benzoimidazol-1-yl)-pyrazin-2-yl]-amine]
> 1 µM | COc1cccc(CNc2cnc(-n3c(C(F)(F)F)nc4cc(OC)ccc43)cn2)c1 [Compound 103, (3-Methoxy-benzyl)-[5-(5-methoxy-2-trifluoromethyl-benzoimidazol-1-yl)-pyrazin-2-yl]-amine]
0.929 µM | COc1cccc(C(=O)Nc2cnc(-n3c(C(F)(F)F)nc4cc(OC)ccc43)cn2)c1 [Compound 104, 3-Methoxy-N-[5-(5-methoxy-2-trifluoromethyl-benzoimidazol-1-yl)-pyrazin-2-yl]-benzamide]
> 1 µM | COc1ccc2c(c1)nc(C(F)(F)F)n2-c1cnc(NCc2ccncc2)cn1 [Compound 105, [5-(5-Methoxy-2-trifluoromethyl-benzoimidazol-1-yl)-pyrazin-2-yl]-pyridin-4-ylmethyl-amine]
0.002 µM | CCc1ccc(C(=O)Nc2cnc(-n3c(C(F)(F)F)nc4cc(OC)ccc43)cn2)cc1 [Compound 106, 4-Ethyl-N-[5-(5-methoxy-2-trifluoromethyl-benzoimidazol-1-yl)-pyrazin-2-yl]-benzamide]
0.018 µM | COc1ccc2c(c1)nc(C(F)(F)F)n2-c1cnc(NC(=O)c2ccc(Br)cc2)cn1 [Compound 107, 4-Bromo-N-[5-(5-methoxy-2-trifluoromethyl-benzoimidazol-1-yl)-pyrazin-2-yl]-benzamide]

IC50 | SMILES
0.057 µM | COc1ccc2c(c1)nc(C(F)(F)F)n2-c1cnc(NC(=O)c2cccc(Br)c2)cn1 [Compound 108, 3-Bromo-N-[5-(5-methoxy-2-trifluoromethyl-benzoimidazol-1-yl)-pyrazin-2-yl]-benzamide]
0.279 µM | CCCc1ccc(C(=O)Nc2cnc(-n3c(C(F)(F)F)nc4cc(OC)ccc43)cn2)cc1 [Compound 109, N-[5-(5-Methoxy-2-trifluoromethyl-benzoimidazol-1-yl)-pyrazin-2-yl]-4-propyl-benzamide]
0.019 µM | COc1ccc2c(c1)nc(C(F)(F)F)n2-c1cnc(NC(=O)c2ccc(Cl)cc2Cl)cn1 [Compound 110, 2,4-Dichloro-N-[5-(5-methoxy-2-trifluoromethyl-benzoimidazol-1-yl)-pyrazin-2-yl]-benzamide]
> 1 µM | COc1ccc2c(c1)nc(C(F)(F)F)n2-c1cnc(NC(=O)c2ccccc2OC)cn1 [Compound 111, 2-Methoxy-N-[5-(5-methoxy-2-trifluoromethyl-benzoimidazol-1-yl)-pyrazin-2-yl]-benzamide]
0.173 µM | COc1ccc2c(c1)nc(C(F)(F)F)n2-c1cnc(NC(=O)c2cccc(I)c2)cn1 [Compound 112, 3-Iodo-N-[5-(5-methoxy-2-trifluoromethyl-benzoimidazol-1-yl)-pyrazin-2-yl]-benzamide]
0.022 µM | COc1ccc2c(c1)nc(C(F)(F)F)n2-c1cnc(NC(=O)c2cccc(Cl)c2Cl)cn1 [Compound 113, 2,3-Dichloro-N-[5-(5-methoxy-2-trifluoromethyl-benzoimidazol-1-yl)-pyrazin-2-yl]-benzamide]
0.088 µM | CCOC(=O)c1cccc(C(=O)Nc2cnc(-n3c(C(F)(F)F)nc4cc(OC)ccc43)cn2)c1 [Compound 114, N-[5-(5-Methoxy-2-trifluoromethyl-benzoimidazol-1-yl)-pyrazin-2-yl]-isophthalamic acid ethyl ester]
> 1 µM | COc1ccc2c(c1)nc(C(F)(F)F)n2-c1cnc(NCc2ccccc2)cn1 [Compound 115, Benzyl-[5-(5-methoxy-2-trifluoromethyl-benzoimidazol-1-yl)-pyrazin-2-yl]-amine]
0.17 µM | COc1ccc2c(c1)nc(C(F)(F)F)n2-c1cnc(NC(=O)c2cccc(C)c2)cn1 [Compound 116, N-[5-(5-Methoxy-2-trifluoromethyl-benzoimidazol-1-yl)-pyrazin-2-yl]-3-methyl-benzamide]
0.081 µM | CCCCc1ccc(C(=O)Nc2cnc(-n3c(C(F)(F)F)nc4cc(OC)ccc43)cn2)cc1 [Compound 117, 4-Butyl-N-[5-(5-methoxy-2-trifluoromethyl-benzoimidazol-1-yl)-pyrazin-2-yl]-benzamide]
0.04 µM | COc1ccc2c(c1)nc(C(F)(F)F)n2-c1cnc(NC(=O)c2ccc(C)cc2)cn1 [Compound 118, N-[5-(5-Methoxy-2-trifluoromethyl-benzoimidazol-1-yl)-pyrazin-2-yl]-4-methyl-benzamide]
0.05 µM | COc1ccc2c(c1)nc(C(F)(F)F)n2-c1cnc(NC(=O)c2ccc(SC)cc2)cn1 [Compound 119, N-[5-(5-Methoxy-2-trifluoromethyl-benzoimidazol-1-yl)-pyrazin-2-yl]-4-methylsulfanyl-benzamide]
0.295 µM | COc1ccc(C(=O)Nc2cnc(-n3c(C(F)(F)F)nc4cc(OC)ccc43)cn2)cc1 [Compound 120, 4-Methoxy-N-[5-(5-methoxy-2-trifluoromethyl-benzoimidazol-1-yl)-pyrazin-2-yl]-benzamide]
> 1 µM | COc1ccc2c(c1)nc(C(F)(F)F)n2-c1cnc(NC(=O)c2cc(C)cc(C)c2)cn1 [Compound 121, N-[5-(5-Methoxy-2-trifluoromethyl-benzoimidazol-1-yl)-pyrazin-2-yl]-3,5-dimethyl-benzamide]
0.073 µM | COc1ccc2c(c1)nc(C(F)(F)F)n2-c1cnc(NC(=O)c2cc(C)ccc2C)cn1 [Compound 122, N-[5-(5-Methoxy-2-trifluoromethyl-benzoimidazol-1-yl)-pyrazin-2-yl]-2,5-dimethyl-benzamide]
> 1 µM | CCOc1ccccc1C(=O)Nc1cnc(-n2c(C(F)(F)F)nc3cc(OC)ccc32)cn1 [Compound 123, 2-Ethoxy-N-[5-(5-methoxy-2-trifluoromethyl-benzoimidazol-1-yl)-pyrazin-2-yl]-benzamide]
> 1 µM | COc1ccc(C(=O)Nc2cnc(-n3c(C(F)(F)F)nc4cc(OC)ccc43)cn2)c(OC)c1 [Compound 124, 2,4-Dimethoxy-N-[5-(5-methoxy-2-trifluoromethyl-benzoimidazol-1-yl)-pyrazin-2-yl]-benzamide]
0.78 µM | COc1ccc2c(c1)nc(C(F)(F)F)n2-c1cnc(NC(=O)c2cccc(C(F)(F)F)c2)cn1 [Compound 125, N-[5-(5-Methoxy-2-trifluoromethyl-benzoimidazol-1-yl)-pyrazin-2-yl]-3-trifluoromethyl-benzamide]
